Test system: ALL cell lines (Jurkat, RS 4-11, TOM-1) and AML cell lines (HL60, K562, KG1 and KG1a)
Assay: Apoptosis assessment, statements over the ALL and AML cell lines
Assay type: cell-based
Experimental: a total of 1×10^6 cellsderived from patients or cell lines were resuspended in 1 mL culture medium and incubated with the indicated dosages of OTX015 prepared freshly from 1 mM stock solution in DMSO. Control cells were incubated with the corresponding amount of dimethyl sulfoxide (DMSO 0.2-1%) to exclude toxicity of the excipient. Apoptotic cells were detected by cytofluorometric analysis using a FACScan (Becton Dickinson, Mountain View, USA). Cells were stained with propidium iodide (PI; 5 μg/mL; Becton Dickinson) and concomitantly for 15 minutes at RT with annexin-V-FITC (Becton Dickinson) according to the manufacturer's instructions to determine outer membrane phosphatidyl serine exposure. Data were analyzed with the Flowjo (Tree Star Inc., Ashland, USA) flow cytometry software.
Compound (1-1) induced apoptosis in three ALL cell lines (Jurkat, RS 4-11, TOM-1) and four AML cell lines (HL60, K562, KG1 and KG1a) that were treated with different doses of the drug as detected by outer membrane phosphatidylserine exposure and propidium iodide incorporation at different time points (FIGS. 13A-13C and FIGS. 14A-14D). […] In all other cell lines, 50% of cells became apoptotic within 12 to 24 hours after treatment with 100 nM of Compound (1-1).

Cc1sc2c(c1C)C(c1ccc(Cl)cc1)=N[C@@H](CC(=O)Nc1ccc(O)cc1)c1nnc(C)n1-2 [Compound (1-1), 2-[(6S)-4-(4-chlorophenyl)-2,3,9-trimethyl-6H-thienol[3,2-f]-[1,2,4]triazolo[4,3-a][1,4]diazepin-6-yl]-N-(4-hydroxyphenyl)acetamide dihydrate]
percentage of apoptotic cells (100 nM, within 12 to 24 hours, all cell lines other than K562 and KG1a): 50% | induction of apoptosis, dose dependence (72 h, KG1a, NOMO1, RS4-11, BV-173, Jurkat, TOM-1): dose-dependent manner | induction of apoptosis (different doses and time points): induced apoptosis in all cell lines tested but to a lesser extent in K562 and KG1a cells

From patent publication US20160158245A1, “PHARMACEUTICAL FORMULATION CONTAINING THIENOTRIAZOLODIAZEPINE COMPOUNDS” (ONCOETHIX GmbH, priority 2013, published 2016)
